According to patent publication US20120053115A1, “Lantibiotic Carboxyamide Derivatives With Enhanced Antibacterial Activity” (Sentinella Pharmaceuticals, Inc., priority 2008, published 2012):

Assays:
[1] = tested on: C. albicans ATCC 90028 (code 145); details: 0.02% albumine bovine serum, read after 24 h
Protocol: (§1) MICs were performed using the broth microdilution methodology following the NCCLS procedure (NCCLS Document M7-A4 Vol. 17 No. 2 January 1997) in presence of 0.02% albumine bovine serum with inocula of approximately 5×10^5 cfu/mL. The media employed included cation-adjusted Mueller-Hinton (MH) broth (Difco Laboratories, Detroit, Mich., USA) supplemented or not with 30% (v/v) bovine serum. Tests were read after 24 h incubation at 25-37° C.

[2] = tested on: E. faecalisVanA (code 560); details: E. faecalis VanA code 560; 0.02% albumine bovine serum; read after 24 h
Protocol: as §1

[3] = tested on: E. faecalisVanS (code 559); details: E. faecalis VanS code 559; 0.02% albumine bovine serum; read after 24 h
Protocol: as §1

[4] = tested on: E. faecium VanA (code 569); details: 0.02% albumine bovine serum, read after 24 h
Protocol: as §1

[5] = tested on: Enterococcus faecium VanS (code 568); details: E. faecium VanS code 568; 0.02% albumine bovine serum; read after 24 h
Protocol: as §1

[6] = tested on: Escherichia coli (code 47); details: 0.02% albumine bovine serum, read after 24 h
Protocol: as §1

[7] = tested on: S. epidermidis ATCC12228 (code 147); details: 0.02% albumine bovine serum, read after 24 h
Protocol: as §1

[8] = tested on: S. haemolyticus Met-R (code 1729); details: 0.02% albumine bovine serum, read after 24 h
Protocol: as §1

[9] = tested on: S. haemolyticus Met-S (code 1730); details: 0.02% albumine bovine serum, read after 24 h
Protocol: as §1

S. pyogenes (code 49) = details: 0.02% albumine bovine serum, read after 24 h
Protocol: as §1

[10] = tested on: Staphylococcus aureus VISA (code 3798); details: S. aureus VISA code 3798; 0.02% albumine bovine serum; read after 24 h
Protocol: as §1

[11] = tested on: Staphylococcus aureus VISA Met-R (code 3797); details: S. aureus VISA Met-R code 3797; 0.02% albumine bovine serum; read after 24 h
Protocol: as §1

Row | Compound | Minimal Inhibitory Concentrations [1] [µg/mL] | Minimal Inhibitory Concentrations [2] [µg/mL] | Minimal Inhibitory Concentrations [3] [µg/mL] | Minimal Inhibitory Concentrations [4] [µg/mL] | Minimal Inhibitory Concentrations [5] [µg/mL] | Minimal Inhibitory Concentrations [6] [µg/mL] | Minimal Inhibitory Concentrations [7] [µg/mL] | Minimal Inhibitory Concentrations [8] [µg/mL] | Minimal Inhibitory Concentrations [9] [µg/mL] | Minimal Inhibitory Concentrations (S. pyogenes (code 49)) [µg/mL] | Minimal Inhibitory Concentrations [10] [µg/mL] | Minimal Inhibitory Concentrations [11] [µg/mL]
1 | C=C1NC(=O)[C@H](C(C)C)NC(=O)[C@H](NC(=O)/C(=C/C)NC(=O)[C@@H](N)[C@@H](C)CC)CSC[C@@H](C(=O)N[C@H]2C(=O)N3CCC[C@H]3C(=O)NCC(=O)N[C@H](C(=O)N[C@H](C(=O)N[C@@H]3CSC[C@@H]4NC(=O)CNC(=O)[C@@H](CSC[C@@H]5NC(=O)[C@H](Cc6c[nH]cn6)NC(=O)[C@@H](CSC[C@@H](C(=O)NCCN(C)C)NC5=O)NC4=O)NC(=O)CNC(=O)CNC(=O)CNC(=O)[C@H](CCC(=O)NCCN(C)C)NC3=O)[C@@H](C)O)CS[C@H]2C)NC(=O)[C@H](Cc2c[nH]c3ccccc23)NC1=O [Compound 4] | 64 | 2 | 4 | 1 | 1 | >128 | 2 | 0.50 | <0.125 | 0.50 | 0.50 | 0.50
2 | C=C1NC(=O)[C@H](C(C)C)NC(=O)[C@H](NC(=O)/C(=C/C)NC(=O)[C@@H](N)[C@@H](C)CC)CSC[C@@H](C(=O)N[C@H]2C(=O)N3CCC[C@H]3C(=O)NCC(=O)N[C@H](C(=O)N[C@H](C(=O)N[C@@H]3CSC[C@@H]4NC(=O)CNC(=O)[C@@H](CSC[C@@H]5NC(=O)[C@H](Cc6c[nH]cn6)NC(=O)[C@@H](CSC[C@@H](C(=O)O)NC5=O)NC4=O)NC(=O)CNC(=O)CNC(=O)CNC(=O)[C@H](CCC(=O)O)NC3=O)[C@@H](C)O)CS[C@H]2C)NC(=O)[C@H](Cc2c[nH]c3ccccc23)NC1=O [Compound 97518, reference compound] | 64 | 128 | 128 | >128 | >128 | >128 | 64 | 128 | 128 | 0.25 | >128 | >128
3 | C=CCNC(=O)CC[C@@H]1NC(=O)[C@H](NC(=O)[C@@H](NC(=O)[C@@H]2CS[C@@H](C)[C@@H](NC(=O)[C@@H]3CSC[C@@H](NC(=O)/C(=C/C)NC(=O)[C@@H](N)[C@@H](C)CC)C(=O)N[C@@H](C(C)C)C(=O)NC(=C)C(=O)N[C@@H](Cc4c[nH]c5ccccc45)C(=O)N3)C(=O)N3CCC[C@H]3C(=O)NCC(=O)N2)[C@@H](C)O)CSC[C@@H]2NC(=O)CNC(=O)[C@@H](CSC[C@@H]3NC(=O)[C@H](Cc4c[nH]cn4)NC(=O)[C@@H](CSC[C@@H](C(=O)NCC=C)NC3=O)NC2=O)NC(=O)CNC(=O)CNC(=O)CNC1=O [Compound 5] | 32 | 8 | 8 | 8 | 8 | >128 | 4 | 32 | 4 | – | 2 | 8
4 | C=C1NC(=O)[C@H](C(C)C)NC(=O)[C@H](NC(=O)/C(=C/C)NC(=O)[C@@H](N)[C@@H](C)CC)CSC[C@@H](C(=O)N[C@H]2C(=O)N3CCC[C@H]3C(=O)NCC(=O)N[C@H](C(=O)N[C@H](C(=O)N[C@@H]3CSC[C@@H]4NC(=O)CNC(=O)[C@@H](CSC[C@@H]5NC(=O)[C@H](Cc6c[nH]cn6)NC(=O)[C@@H](CSC[C@@H](C(=O)NCCCN(C)C)NC5=O)NC4=O)NC(=O)CNC(=O)CNC(=O)CNC(=O)[C@H](CCC(=O)NCCCN(C)C)NC3=O)[C@@H](C)O)CS[C@H]2C)NC(=O)[C@H](Cc2c[nH]c3ccccc23)NC1=O [Compound 3] | 64 | 4 | 4 | 1 | 2 | >128 | 2 | 1 | <0.125 | 2 | 0.50 | 1
5 | C=C1NC(=O)[C@H](C(C)C)NC(=O)[C@H](NC(=O)/C(=C/C)NC(=O)[C@@H](N)[C@@H](C)CC)CSC[C@@H](C(=O)N[C@H]2C(=O)N3CCC[C@H]3C(=O)NCC(=O)N[C@H](C(=O)N[C@H](C(=O)N[C@@H]3CSC[C@@H]4NC(=O)CNC(=O)[C@@H](CSC[C@@H]5NC(=O)[C@H](Cc6c[nH]cn6)NC(=O)[C@@H](CSC[C@@H](C(=O)Nc6cccc7ccccc67)NC5=O)NC4=O)NC(=O)CNC(=O)CNC(=O)CNC(=O)[C@H](CCC(=O)Nc4cccc5ccccc45)NC3=O)[C@@H](C)O)CS[C@H]2C)NC(=O)[C@H](Cc2c[nH]c3ccccc23)NC1=O [Compound 9] | 32 | 16 | 16 | 16 | 8 | >128 | 16 | 16 | 16 | – | 32 | 32
6 | C=C1NC(=O)[C@H](C(C)C)NC(=O)[C@H](NC(=O)/C(=C/C)NC(=O)[C@@H](N)[C@@H](C)CC)CSC[C@@H](C(=O)N[C@H]2C(=O)N3CCC[C@H]3C(=O)NCC(=O)N[C@H](C(=O)N[C@H](C(=O)N[C@@H]3CSC[C@@H]4NC(=O)CNC(=O)[C@@H](CSC[C@@H]5NC(=O)[C@H](Cc6c[nH]cn6)NC(=O)[C@@H](CSC[C@@H](C(=O)N(C)C)NC5=O)NC4=O)NC(=O)CNC(=O)CNC(=O)CNC(=O)[C@H](CCC(=O)N(C)C)NC3=O)[C@@H](C)O)CS[C@H]2C)NC(=O)[C@H](Cc2c[nH]c3ccccc23)NC1=O [Compound 2] | 64 | 16 | 16 | 16 | 16 | >128 | 8 | 32 | 8 | – | 4 | 16
7 | C=C1NC(=O)[C@H](C(C)C)NC(=O)[C@H](NC(=O)/C(=C/C)NC(=O)[C@@H](N)[C@@H](C)CC)CSC[C@@H](C(=O)N[C@H]2C(=O)N3CCC[C@H]3C(=O)NCC(=O)N[C@H](C(=O)N[C@H](C(=O)N[C@@H]3CSC[C@@H]4NC(=O)CNC(=O)[C@@H](CSC[C@@H]5NC(=O)[C@H](Cc6c[nH]cn6)NC(=O)[C@@H](CSC[C@@H](C(=O)NCCCCCCCCCCCC)NC5=O)NC4=O)NC(=O)CNC(=O)CNC(=O)CNC(=O)[C@H](CCC(=O)NCCCCCCCCCCCC)NC3=O)[C@@H](C)O)CS[C@H]2C)NC(=O)[C@H](Cc2c[nH]c3ccccc23)NC1=O [Compound 8] | 0.25 | 1 | 1 | 2 | 2 | 2 | 1 | 1 | 1 | – | 1 | 2
8 | C=C1NC(=O)[C@H](C(C)C)NC(=O)[C@H](NC(=O)/C(=C/C)NC(=O)[C@@H](N)[C@@H](C)CC)CSC[C@@H](C(=O)N[C@H]2C(=O)N3CCC[C@H]3C(=O)NCC(=O)N[C@H](C(=O)N[C@H](C(=O)N[C@@H]3CSC[C@@H]4NC(=O)CNC(=O)[C@@H](CSC[C@@H]5NC(=O)[C@H](Cc6c[nH]cn6)NC(=O)[C@@H](CSC[C@@H](C(=O)NCc6cccc(OC)c6)NC5=O)NC4=O)NC(=O)CNC(=O)CNC(=O)CNC(=O)[C@H](CCC(=O)NCc4cccc(OC)c4)NC3=O)[C@@H](C)O)CS[C@H]2C)NC(=O)[C@H](Cc2c[nH]c3ccccc23)NC1=O [Compound 6] | 32 | 2 | 2 | 1 | 2 | >128 | 2 | >128 | 2 | – | 1 | 2
